Bounds are passed on as bounds.

For this assay, the target named is T1, PDE7 (type VII phosphodiesterase) (Homo sapiens, UniProt Q13946).
T1 construct: endogenous in cells; host or cells: MOLT-4 (ATCC CRL-1582), soluble fraction, HiTrapQ anion-exchange fraction
T1 sequence (Q13946 whole entry): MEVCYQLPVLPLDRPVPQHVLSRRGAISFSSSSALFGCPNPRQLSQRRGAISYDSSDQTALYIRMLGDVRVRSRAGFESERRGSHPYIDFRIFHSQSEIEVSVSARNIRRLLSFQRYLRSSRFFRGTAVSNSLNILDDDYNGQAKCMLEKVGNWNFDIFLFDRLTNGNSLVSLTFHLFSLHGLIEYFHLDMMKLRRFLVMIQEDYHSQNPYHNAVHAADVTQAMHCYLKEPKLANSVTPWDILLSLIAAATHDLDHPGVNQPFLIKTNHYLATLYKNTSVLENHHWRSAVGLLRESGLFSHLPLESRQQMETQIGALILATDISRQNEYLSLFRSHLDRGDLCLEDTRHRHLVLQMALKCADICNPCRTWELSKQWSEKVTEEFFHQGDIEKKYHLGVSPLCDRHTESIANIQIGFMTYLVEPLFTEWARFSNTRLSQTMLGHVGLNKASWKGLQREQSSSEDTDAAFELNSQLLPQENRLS
Briefly: PDE7 inhibiting activity (3H-cAMP hydrolysis, active fraction from MOLT-4 cells). Particulars: PDE7 fraction from MOLT-4 cells, 0.064 μM cAMP, 10 μM rolipram present, 2 hours at 25° C.; read-out: IC50 values for phosphodiesterase inhibiting activities (PDE7). The format is biochemical. How it is done:
To evaluate the compounds of the present invention for the ability to suppress PDE7 (type VII phosphodiesterase), the method of Biochemical Pharmacol. 48(6), 1219-1223 (1994) was partially modified to perform the following assay:
1) PDE7 (type VII phosphodiesterase) active fraction was obtained. That is, human acute lymphoblastoid lymphoma T cell strain MOLT-4 (purchasable from ATCC under ATCC No. CRL-1582) was cultured in RPMI1640 medium containing 10% fetal bovine serum to obtain 5×10^8 MOLT4 cells. The cells were harvested by centrifugation, and suspended in 10 ml of buffer A (25 mM tris-HCl, 5 mM 2-mercaptoethanol, 2 mM benzamidine, 2 mM EDTA, 0.1 mM 4-(2-aminoethyl)benzenesulfonyl hydrochloride, pH 7=7.5). The cells were homogenized in a Polytoron homogenizer, and centrifuged (4° C., 25,000 G, 10 min). The supernatant was further ultracentrifuged (4° C., 100,000 G, 60 min), and the resulting supernatant was filtered through a 0.2 μm filter to obtain a soluble fraction.
2) HiTrapQ column (5 ml×2) equilibrated with buffer A was charged with the resulting soluble fraction. Phosphodiesterase was eluted using 300 ml of buffer A containing a linear gradient solution of 0 to 0.8M sodium chloride to collect sixty 5 ml fractions. Each fraction was tested for cAMP metabolizing phosphodiesterase activity.
3) The test compounds at desired concentrations were each reacted for 2 hours at 25° C. in a reactant mixture containing 20 mM tris-HCl (pH 7.5), 1 mM MgCl2, 100 μM EDTA, 330 μg/ml bovine serum albumin, 4 μg/ml 5′-nucleotidase, 0.1 μCi^3H-cAMP (0.064 μM cAMP), 10 μM rolipram, and the type VII phosphodiesterase stored solution. QAE-Sephadex suspended in 10 mM HEPES-Na (pH 7.0) was added to the reaction mixture, and the mixture was allowed to stand for 5 minutes. Then, the supernatant was recovered, and QAE-Sephadex was further added, followed by allowing the mixture to stand for 5 minutes. Then, the resulting supernatant was measure for radioactivity.
4) IC50, as the concentration of the test compound that inhibited 50% of the metabolic activity of PDE7, was calculated for each of the compounds.
For the compound `CNCCN(C)c1ccc(-c2nc3c(c(C4CCCCC4)nn3C)c(=O)[nH]2)c(OC)c1` [Example 84, 3-Cyclohexyl-6-(2-methoxy-4-{methyl[2-(methylamino)ethyl]amino}phenyl)-1-methyl-1,5-dihydro-4H-pyrazolo[3,4-d]pyrimidin-4-one monomethanesulfonate], the half-inhibitory concentration (IC50) was not above 0.01 µM.

With `CCOc1cc(N2CCN(C)CC2)ccc1-c1nc2c(c(C3CCCCC3)nn2C)c(=O)[nH]1` [Example 87, 3-Cyclohexyl-6-[2-ethoxy-4-(4-methyl-1-piperazinyl)phenyl]-1-methyl-1,5-dihydro-4H-pyrazolo[3,4-d]pyrimidin-4-one monomethanesulfonate], the IC50 is not above 0.01 µM. Regarding `CCOc1cc(N2CCC(NC)CC2)ccc1-c1nc2c(c(C3CCCCC3)nn2C)c(=O)[nH]1` [Example 90, 3-Cyclohexyl-6-{2-ethoxy-4-[4-(methylamino)-1-piperidinyl]phenyl}-1-methyl-1,5-dihydro-4H-pyrazolo[3,4-d]pyrimidin-4-one monomethanesulfonate], the IC50 was not above 0.01 µM. As for `CNC1CCN(c2ccc(-c3nc4c(C)nn(C5CCCCC5)c4c(=O)[nH]3)c(OC)c2)CC1` [Example 92, 1-Cyclohexyl-5-{2-methoxy-4-[4-(methylamino)-1-piperidinyl]phenyl}-3-methyl-1,6-dihydro-7H-pyrazolo[4,3-d]pyrimidin-7-one], the figure is not above 0.01 µM.

For `CNC1CCN(c2ccc(-c3nc4c(c(C5CCCCCC5)nn4C)c(=O)[nH]3)c(OC)c2)CC1` [Example 95, 3-Cycloheptyl-6-{2-methoxy-4-[4-(methylamino)-1-piperidinyl]phenyl}-1-methyl-1,5-dihydro-4H-pyrazolo[3,4-d]pyrimidin-4-one monomethanesulfonate], the half-maximal inhibitory concentration (IC50) is not above 0.01 µM. The value for `CCNC1CCN(c2ccc(-c3nc4c(c(C5CCCCC5)nn4C)c(=O)[nH]3)c(OC)c2)CC1` [Example 97, 3-Cyclohexyl-6-{2-methoxy-4-[4-(ethylamino)-1-piperidinyl]phenyl}-1-methyl-1,5-dihydro-4H-pyrazolo[3,4-d]pyrimidin-4-one] was not above 0.01 µM. As for `CCNC1CCN(c2ccc(-c3nc4c(C)nn(C5CCCCC5)c4c(=O)[nH]3)c(OC)c2)CC1` [Example 99, 1-Cyclohexyl-5-{2-methoxy-4-[4-(ethylamino)-1-piperidinyl]phenyl}-3-methyl-1,6-dihydro-7H-pyrazolo[4,3-d]pyrimidin-7-one], the figure is not above 1 µM. As for `CNCCN(C)c1ccc(-c2nc3c(C)nn(C4CCCCC4)c3c(=O)[nH]2)c(OC)c1` [Example 103, 1-Cyclohexyl-5-(2-methoxy-4-{methyl[2-(methylamino)ethyl]amino}phenyl)-3-methyl-1,6-dihydro-7H-pyrazolo[4,3-d]pyrimidin-7-one monofumarate], the figure is not above 0.01 µM; as for `COc1cc(N(C)CCO)ccc1-c1nc2c(C)nn(C3CCCCC3)c2c(=O)[nH]1` [Example 107, 1-Cyclohexyl-5-{4-[(2-hydroxyethyl)(methyl)amino]-2-methoxyphenyl}-3-methyl-1,6-dihydro-7H-pyrazolo[4,3-d]pyrimidin-7-one], not above 0.01 µM; as for `COc1cc(N2CCC(CO)CC2)ccc1-c1nc2c(C)nn(C3CCCCC3)c2c(=O)[nH]1` [Example 109, 1-Cyclohexyl-5-{4-[4-(hydroxymethyl)-1-piperidinyl]-2-methoxyphenyl}-3-methyl-1,6-dihydro-7H-pyrazolo[4,3-d]pyrimidin-7-one], not above 0.01 µM. Consider `CNCCCN(C)c1ccc(-c2nc3c(C)nn(C4CCCCC4)c3c(=O)[nH]2)c(OC)c1` [Example 111, 1-Cyclohexyl-5-(2-methoxy-4-{methyl[3-(methylamino)propyl]amino}phenyl)-3-methyl-1,6-dihydro-7H-pyrazolo[4,3-d]pyrimidin-7-one monofumarate], for which the IC50 was not above 0.01 µM.
